Data as given in patent publication US20040142960A1 (priority 2001, published 2004).
Counter-ions that a name gives are not always drawn.

Assays:
[1] = test system: bone marrow cells; conditions: concentrations at which the adrenergic antagonists are effective; cited from earlier work
[2] = test system: HSV-1; conditions: cited from earlier work
[3] = test system: Langerhans cells; conditions: administered intraperitoneally; cited from earlier work
[4] = test system: HSV-1; assay: systemic or local treatment, HSV-1 reactivation from latency; type: in vivo
[5] = antibody response in treated subjects; type: in vivo

## Cc1ccc(N(CC2=NCCN2)c2cccc(O)c2)cc1 [phentolamine]
[1]
  relative order of potency in counteracting norepinephrine: prazosin>phentolamine>yohimbine

## COc1cc2nc(N3CCN(C(=O)c4ccco4)CC3)nc(N)c2cc1OC [prazosin]
[1]
  relative order of potency in counteracting norepinephrine: prazosin>phentolamine>yohimbine

## COC(=O)[C@@H]1[C@H]2C[C@H]3c4[nH]c5ccccc5c4CCN3C[C@@H]2CC[C@@H]1O [yohimbine hydrochloride]
[2]
  activity on HSV-1: inactive

## COC(=O)[C@@H]1[C@H]2C[C@H]3c4[nH]c5ccccc5c4CCN3C[C@@H]2CC[C@@H]1O [yohimbine, (16α,17α)-hydroxyyohimban-16-carboxylic acid methyl ester]
[3]
  Langerhans cells migration: enhances the Langheran's cells migration
[4]; in vivo
  inflammation during HSV-1 reactivation: reduced inflammation
[4]; systemic or local treatment
  HSV-1 reactivation frequency: reduces the HSV-1 reactivation frequency
  local norepinephrine concentration: local increase of norepinephrine concentration
[5]
  antibody response: stimulates and enhances the antibody response
